pEC50: −log10 of the molar value. In brackets after ≈: the same amount, converted by molar mass.
Tests used:
[1] = test system: Human STING (hSTING, residues 155-341); assay: Interaction with hSTING as determined by Differential Scanning Fluorimetry (DSF); format: binding; conditions: 100 μM test compounds, 5 μM target protein
Method in brief: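 Thermal shift of hSTING (residues 155-341, 5 μM) with test compounds at 100 μM in 20 mM Tris, 150 mM NaCl, pH 7.5, using 5× SYPRO Orange. Ramped 25 to 95 °C at 0.5 °C per cycle (15 s/cycle) by real-time PCR fluorescence. Tm from duplicate melting curves, averaged.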

STING HAQ-variant = target: T1, STING HAQ-variant (Homo sapiens, UniProt Q86WV6, G230A/H232R/R293Q/R71H); assay: IRF-inducible SEAP reporter assay in THP1-Blue ISG cells, STING HAQ-variant; format: cell-based; conditions: STING HAQ-variant (parental or re-introduced), 24 hours incubation
T1 construct: parental THP1-Blue™ ISG cell lines (which express endogenously HAQ); host or cells: THP1-Blue ISG (parental, endogenous HAQ) or STING-KO clone re-transduced with HAQ (MSCV-ires-GFP-Blasti)
T1 sequence (Q86WV6 whole entry R71H/G230A/H232R/R293Q): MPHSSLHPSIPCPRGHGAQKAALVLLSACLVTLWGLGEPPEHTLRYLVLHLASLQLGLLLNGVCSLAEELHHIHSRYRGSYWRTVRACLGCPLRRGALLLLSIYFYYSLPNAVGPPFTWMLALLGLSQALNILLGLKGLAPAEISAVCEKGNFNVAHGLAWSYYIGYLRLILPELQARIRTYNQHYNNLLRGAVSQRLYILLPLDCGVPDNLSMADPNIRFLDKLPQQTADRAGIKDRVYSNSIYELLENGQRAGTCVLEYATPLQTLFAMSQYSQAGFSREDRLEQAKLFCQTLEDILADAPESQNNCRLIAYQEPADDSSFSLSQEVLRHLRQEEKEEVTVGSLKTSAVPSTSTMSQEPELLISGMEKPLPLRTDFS
Method in brief: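 THP1-Blue ISG cells expressing STING HAQ, either endogenously (parental) or re-introduced after CRISPR knockout, were seeded at 10000 cells/well. They received 8-point compound dilutions (0.5% DMSO final) for 24 hours at 37° C. IRF-driven SEAP was read with Quanti-Blue at OD 620 nm after 30 minutes, and EC50 came from four-parameter fits.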

[2] = Solubility measurements (HTS) at pH 6.8; format: physicochemical; conditions: kinetic from dmso stock; aqueous McIlvaine buffer pH 6.8, 24 h at room temperature, from 10 mM DMSO stock; read-out: Soblubility
Description: Aqueous solubilities were determined from 10 mM stock solutions of the compounds in DMSO diluted to a final concentration of 250 μM with aqueous McIlvaine buffer at pH 6.8, or with acetonitrile/water (1:1) as a reference. Samples were shaken for 24 h at room temperature in 96-well plates (Whatman Uniplate® 96 wells, 750 μL, polypropylene, round bottom). The plate was then centrifuged at 3,000 rpm for 2 min. 250 μL of each sample were transferred to a Millipore MultiScreenHTS filter plate with a polycarbonate membrane, pore size 0.45 μm. Filtrates were collected by centrifugation at 3,000 rpm for 2 min. The dissolved concentrations were determined by UPLC/UV (Ultra-Performance Liquid Chromatography/ultraviolet) on a Waters ACQUITY UPLC® SQD system equipped with a Waters ACQUITY UPLC® BEH 2.1×50 mm C18 column, particle size 1.7 μm, using a short gradient with water/0.1% formic acid as solvent A and acetonitrile/0.1% formic acid as solvent B (5 to 95% B with 1.7 min total cycle time). Compounds signals were measured with a photodiode array UV detector operated at 254 nm. Solubilities were determined with a one point calibration by comparing peak areas relative to the reference standard using Waters Empower software.

in vitro = conditions: human, Caco-2, pH 7.4
Description: Cellular Permeability Measurements
Caco-2 cells were obtained from Leibniz Institute DSMZ-German Collection of Microorganisms and Cell Cultures (Braunschweig, Germany) and cultured in DMEM (Dulbecco's modified Eagle medium) containing (in final concentrations) 10% FCS (fetal calf serum), 1% NEAA (non-essential amino acids), 2 mM Glutamin, 100 U/mL Penicillin and 100 μg/mL Streptomycin. Caco-2 cells were seeded either onto 24-well Transwell inserts (Corning, #3379) for bidirectional permeability assays at a density of 160,000 cells/cm^2 and cultured for 3 weeks, with media change on every second day.
For bidirectional permeability assays 10 mM DMSO stock solutions were diluted in transport buffer (final concentrations: 128.13 mM NaCl, 5.36 mM KCl, 1 mM MgSO4, 1.8 mM CaCl2, 4.17 mM NaHCO3, 1.19 mM Na2HPO4, 0.41 mM NaH2PO4, 15 mM 2-[4-(2-hydroxyethyl)piperazin-1-yl]ethanesulfonic acid (HEPES), 20 mM glucose, pH 7.4) containing 0.25% bovine serum albumin to a final concentration of 10 μM of the test compounds and added to the apical or basal compartment. Cells were incubated with the compounds for up to 2 h. Samples from the opposite compartment were taken at different timepoints.
Compound concentrations in the compartments were quantified using a RapidFire-based high-throughput HPLC/MS/MS system (high performance liquid chromatography/mass spectrometry; Bio-Cius) that was customized to a fully automated and flexible platform, termed RIAS. In this modified setup, the sample was aspirated by a vacuum pump into a 10 μL sample loop for 250 ms and flushed onto a C4 cartridge (3.8 μL bed volume; Bio-Cius) with the aqueous mobile phase (99.9% water, 0.09% formic acid, and 0.01% TFA; flow rate 1.5 mL/min). Prior to bioanalysis samples were spiked with internal standard solution and diluted with acetonitrile (ACN) for protein precipitation. Measurement was operated in multiplereaction monitoring (MRM) mode. Quantification was performed using external calibration. A solid-phase extraction step retained the analyte for 3000 ms while interfering matrix (e.g., buffer components) was removed. With a simple step gradient, the analyte was back-eluted from the cartridge for 3,000 ms with the organic mobile phase (99.9% acetonitrile/methanol [1:1, v:v], 0.09% formic acid, and 0.01% TFA) and flushed into the mass spectrometer at a flow rate of 1.25 mL/min. Afterwards, the cartridge was re-equilibrated with the aqueous mobile phase for 500 ms (flow rate 1.5 mL/min).
Apparent permeability coefficients in the apical to basal direction (Papp,AB) and in the basal to apical direction (Papp,BA) and efflux ratios were calculated as follows: Papp,AB=QAB/(C0·s·t) Papp,BA=QBA/(C0·s·t) Efflux ratio=Papp,BA/Papp,AB
where Q is the amount of compound recovered in the receiver compartment after the incubation time t, C0 the initial compound concentration given to the donor compartment, and s the surface area of the Transwell inserts. […] In addition, transepithelial electrical resistance (TEER) values are measured for each plate before the permeability assay, and total recovery in donor and receiver compartments was determined for each compound.

STING H232R-variant = target: T2, STING H232R-variant (Homo sapiens, UniProt Q86WV6, H232R); assay: IRF-inducible SEAP reporter assay in THP1-Blue ISG cells, STING H232R-variant; format: cell-based; conditions: STING H232R-variant (WT), 24 hours incubation
T2 construct: expressed in transfected cells; host or cells: THP1-Blue ISG hSTING KO clone, retroviral MSCV-ires-GFP-Blasti
T2 sequence (Q86WV6 whole entry H232R): as the sequence (Q86WV6 whole entry R71H/G230A/H232R/R293Q) above, with H71R, A230G, Q293R counted along it
Method in brief: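 THP1-Blue ISG cells with endogenous STING deleted by CRISPR and retrovirally re-expressing human STING H232R; 8-point compound dilutions, 0.5% DMSO final, 24 h at 37 °C. SEAP read by Quanti-Blue, 30 min, OD 620 nm; EC50 and Hill slope from four-parameter fit.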

STING R232H-variant = target: T3, STING R232H-variant (Homo sapiens, UniProt Q86WV6); assay: IRF-inducible SEAP reporter assay in THP1-Blue ISG cells, STING R232H-variant; format: cell-based; conditions: 24 hours incubation
T3 construct: expressed in transfected cells; host or cells: THP1-Blue ISG hSTING KO clone, retroviral MSCV-ires-GFP-Blasti
T3 sequence (Q86WV6 whole entry, stated change not applied): as the sequence (Q86WV6 whole entry R71H/G230A/H232R/R293Q) above, with H71R, A230G, R232H, Q293R counted along it
Method in brief: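 THP1-Blue ISG cells, endogenous STING knocked out by CRISPR and re-expressing hSTING R232H, with IRF-inducible SEAP reporter. Treated 24 h at 37 °C with 8-point compound dilutions (0.5% DMSO final); SEAP read by Quanti-Blue OD 620 nm after 30 min. EC50 from four-parameter fit.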

STING R293Q-variant = target: T4, STING R293Q-variant (Homo sapiens, UniProt Q86WV6, H232R/R293Q); assay: IRF-inducible SEAP reporter assay in THP1-Blue ISG cells, STING R293Q-variant; format: cell-based; conditions: 24 hours incubation
T4 construct: expressed in transfected cells; host or cells: THP1-Blue ISG hSTING KO clone, retroviral MSCV-ires-GFP-Blasti
T4 sequence (Q86WV6 whole entry H232R/R293Q): as the sequence (Q86WV6 whole entry R71H/G230A/H232R/R293Q) above, with H71R, A230G counted along it
Method in brief: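 THP1-Blue ISG cells with endogenous STING knocked out (CRISPR) and retrovirally re-expressing human STING R293Q; 10000 cells/well, compound 24 h at 37 °C, 0.5% DMSO final. SEAP read by Quanti-Blue (30 min, OD 620 nm); EC50 and Hill slope from 8-point four-parameter fit.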

STING AQ-variant = target: T5, STING AQ-variant (Homo sapiens, UniProt Q86WV6, G230A/H232R/R293Q); assay: IRF-inducible SEAP reporter assay in THP1-Blue ISG cells, STING AQ-variant; format: cell-based; conditions: 24 hours incubation
T5 construct: expressed in transfected cells; host or cells: THP1-Blue ISG hSTING KO clone, retroviral MSCV-ires-GFP-Blasti
T5 sequence (Q86WV6 whole entry G230A/H232R/R293Q): as the sequence (Q86WV6 whole entry R71H/G230A/H232R/R293Q) above, with H71R counted along it
Text: In Vitro Cytokine Induction Measured Via Activation of an Interferon Regulatory Factor Inducible Reporter Gene
Activation of the STING protein expressed in cell lines results in an increase of interferon production. By the stable integration of an interferon regulatory factor (IRF)-inducible SEAP gene (secreted embryonic alkaline phosphatase) reporter construct the functional interferon signaling pathway can be monitored. Using Invivogen's THP1-Blue™ ISG colorimetric enzyme assay and a suitable optical density (OD) reader the activity of SEAP can be detected and quantified. This technique could be used to characterize pharmacological modification of the STING pathway.
Several single nucleotide polymorphisms have been identified in the human STING gene. To determine the activity of the above described compounds, THP1-Blue™ ISG reporter cell lines expressing the different human STING variants have been generated. To do so, the endogenous human STING was first deleted using the CRISPR/CAS9 system: THP1-Blue ISG cells were electroporated with ALL-IN-ONE CRISPR plasmids targeting the STING gene (purchased from Sigma encoding the gRNA and GFP as a reporter gene for successful transduction). GFP positive cells then were sorted 24 h post transfection and expanded. Cells were then dispersed in semisolid methocel medium to allow single cell clone isolations. Clones were then screened for cGAMP responsiveness using the Quanti-Blue™ reporter assay. Non-responsive clones were subsequently analysed for STING loss by western blotting and sequencing of the STING locus.
For the overexpression of the human STING variants, a confirmed THP1-Blue™ ISG hSTING KO clone was transduced with individual retroviral plasmids (MSCV-ires-GFP-Blasti) encoding the allelic variants of hSTING (WT (H232R), HAQ, R232H, AQ and R293Q). Transduced cells were sorted for different levels of GFP fluorescence and STING allele expression was analysed by western blot.
Measurements of SEAP activity were performed in THP1-Blue™ ISG cells stably expressing the different human STING isoforms and the IRF-inducible SEAP reporter construct. Cells were cultivated in RPMI1640 medium with 10% fetal calf serum, 50 μg/ml Penicillin-Streptomycin, 100 μg/ml Zeocin, and 100 μg/ml Normocin in a 37°, 95% humidity and 5% CO2 incubator.
In preparation for the assay, the cells were distributed into the assay plates with a density of 10000 cells/15 μL per well. Compounds were prepared by an 8 point serial dilution in 50% aqueous DMSO and a final dilution step into medium to ensure a final DMSO concentration of 0.5% in the assay. 5 μL of diluted compounds were added to the plates, followed by a 24 hours incubation at 37° C.
At the day of the assay, 75 μl per well of Quanti-Blue™ reagent was added to all wells of the plate and the plate was incubated another 30 minutes at 37° C. The OD at 620 nm was measured on the EnVision reader (PerkinElmer).
EC50 values and Hill slopes were derived from 8-point four parametric non-linear curve fittings with the Megalab software (Boehringer Ingelheim) using the OD at 620 nm.
Data of EC50 values can be found in tables 2a-2e.
Data of EC50 values on STING AQ-variant can be found in table 2e: […]

Structure (SMILES) | thermal shift (ΔTm) [1] [K] | pEC50 (STING HAQ-variant) | solubility kinetic at 24 h [2] [µg/mL] | Papp A→B at 10 μM (in vitro) [×10⁻⁶ cm/s] | efflux ratio at 10 μM (in vitro) | pEC50 (STING H232R-variant) | pEC50 (STING R232H-variant) | pEC50 (STING R293Q-variant) | pEC50 (STING AQ-variant)
Cc1cccc2c(-c3cccc4nn(C)cc34)nn(-c3ccc(N4CCC(c5nn[nH]n5)CC4)nc3)c12 [Example #19, 2′,7-dimethyl-1-{6-[4-(2H-1,2,3,4-tetrazol-5-yl)piperi-din-1-yl]pyridin-3-yl}-1H,2′H-3,4′-biindazole] | 21 | 5.19 | 51 (≈ 104 µM) |  |  |  |  |  | 
Cc1c(-c2cnn(C)c2)ccc2c(-c3cccc4nn(C)cc34)nn(-c3ccc(N4CC5C(C4)C5C(=O)O)nc3)c12 (stereo not shown) [Example #28, 3-{5-[2′,7-dimethyl-6-(1-methyl-1H-pyrazol-4-yl)-1H,2′H-[3,4′-biindazol]-1-yl]pyridin-2-yl}-3-azabicy-clo[3.1.0]hexane-6-carbox-ylic acid] | 27 | 7.10 | 87 (≈ 160 µM) |  |  |  |  |  | 
Cc1cccc2c(-c3cccc4cnc(N(C)C)cc34)nn(-c3ccc(N4CCC(C(=O)O)CC4)nc3)c12 [Example #63, 1-(5-{3-[3-(dimethyla-mino)isoquinolin-5-yl]-7-methyl-1H-indazol-1-yl}pyridin-2-yl)piperidine-4-carboxylic acid] | 19 | 5.31 | 75 (≈ 148 µM) | 19 | 0.6 |  |  |  | 
Cc1cc(C)c2c(c1)c(-c1cccc3nn(C)cc13)nn2-c1ccc(N2CCC(C(=O)O)CC2)nc1 [Example #70, 1-(5-{2′,5,7-trimethyl-1H,2′H-[3,4′-biindazol]-1-yl}pyridin-2-yl)piperidine-4-carboxylic acid] |  | 4.79 | 74 (≈ 154 µM) | 18 | 1.2 |  |  |  | 
Cn1cc2c(-c3nn(-c4ccc(N5CC6C(C5)C6C(=O)O)nc4)c4c(Cl)cccc34)cccc2n1 (stereo not shown) [compound 26, 3-(5-{7-chloro-2′-methyl-1H,2′H-[3,4′-biindazol]-1-yl}pyridin-2-yl)-3-azabicy-clo[3.1.0]hexane-6-carbox-ylic acid] |  | 6.05 | 60 (≈ 124 µM) |  |  | 6.70 | 6.70 | 6.22 | 6.15
COc1cccc2c(-c3cccc4nn(C)cc34)nn(-c3ccc(N4CC5C(C4)C5C(=O)O)nc3)c12 (stereo not shown) [compound 29, 3-(5-{7-methoxy-2′-methyl-1H,2′H-[3,4′-biindazol]-1-yl}pyridin-2-yl)-3-azabicyclo[3.1.0]hex-ane-6-carboxylic acid] | 22 | 6.10 | 63 (≈ 131 µM) |  |  | 6.70 | 6.22 | 6.22 | 6.15
Cc1cccc2c(-c3cccc4c3OCO4)nn(-c3ccc(N4CC5C(C4)C5C(=O)O)nc3)c12 (stereo not shown) [compound 30, 3-(5-[3-(2H-1,3-benzodi-oxol-4-yl)-7-methyl-1H-in-dazol-1-yl]pyridin-2-yl}-3-azabicyclo[3.1.0]hexane-6-carboxylic acid] | 20 | 5.21 | 42 (≈ 92.4 µM) | 14 | 0.9 |  |  |  | 
Cc1cccc2c(-c3cccc4nn(C)cc34)nn(-c3ccc(N4CCN(CC(=O)O)C(=O)C4)nc3)c12 [compound 58, 2-[4-(5-{2′,7-dimethyl-1H,2′H-[3,4′-biindazol]-1-yl}pyridin-2-yl)-2-oxopi-perazin-1-yl]acetic acid] | 23 | 5.17 | 84 (≈ 170 µM) |  |  |  |  |  | 
Cc1cccc2c(-c3cccc4cnccc34)nn(-c3ccc(N4CCC(C(=O)O)CC4)nc3)c12 [compound 62, 1-{5-[3-(isoquinolin-5-yl)-7-methyl-1H-indazol-1-yl]pyridin-2-yl}piperidine-4-carboxylic acid] | 20 | 5.51 | 49 (≈ 106 µM) | 11 | 1.2 |  |  |  | 
Cc1cc(C)c2c(c1)c(-c1cccc3nn(C)cc13)nn2-c1ccc(N2CC3C(C2)C3C(=O)O)nc1 (stereo not shown) [compound 69, 3-(5-{2′,5,7-trimethyl-1H,2′H-[3,4′-biindazol]-1-yl}pyridin-2-yl)-3-azabicy-clo[3.1.0]hexane-6-car-boxylic acid] |  | 5.85 | 70 (≈ 146 µM) | 14 | 1 | 6.52 | 6.52 | 6.15 | 6.15
Cc1c(CO)ccc2c(-c3cccc4nn(C)cc34)nn(-c3ccc(N4CC5C(C4)C5C(=O)O)nc3)c12 (stereo not shown) [compound 71, 3-{5-[6-(hydroxymethyl)-2′,7-dimethyl-1H,2′H-[3,4′-biindazol]-1-yl]pyri-din-2-yl}-3-azabicy-clo[3.1.0]hexane-6-car-boxylic acid] | 29 | 6.22 | 67 (≈ 135 µM) |  |  |  |  |  | 
